# Laboratory results as given in ChEMBL document CHEMBL4251556, “Selective kappa opioid antagonists for treatment of addiction, are we there yet?” (Eur J Med Chem, 2017).
# Residues, ends and D or L forms follow the SMILES beside them.
# Tests used:
# [1] = biological target: G_PROTEIN_RECEP_F1_2 domain-containing protein (Cavia porcellus, UniProt A0A286XTF2); test: Displacement of [3H]DPDPE from delta-opioid receptor in guinea pig brain membranes after 30 mins by scintillation counting method; assay type: cell membranes, Membrane
# G_PROTEIN_RECEP_F1_2 domain-containing protein, sequence (A0A286XTF2 whole entry): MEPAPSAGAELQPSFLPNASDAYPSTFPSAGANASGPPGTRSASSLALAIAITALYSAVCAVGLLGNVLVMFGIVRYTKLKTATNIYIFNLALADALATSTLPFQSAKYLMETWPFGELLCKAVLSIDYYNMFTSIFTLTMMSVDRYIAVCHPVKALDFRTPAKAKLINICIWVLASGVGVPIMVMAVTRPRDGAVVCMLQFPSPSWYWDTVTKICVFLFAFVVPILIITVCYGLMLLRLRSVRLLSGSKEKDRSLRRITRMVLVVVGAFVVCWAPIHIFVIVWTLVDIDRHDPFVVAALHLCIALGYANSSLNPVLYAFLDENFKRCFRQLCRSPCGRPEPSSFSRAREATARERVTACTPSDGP
# Oryctolagus cuniculus = organism: Oryctolagus cuniculus; test: Antagonist activity at KOR in Japanese white rabbit vas deferens assessed as inhibition of asimadoline-induced suppression of electric field stimulated twitch response after 30 mins
# [2] = biological target: Kappa-type opioid receptor (Cavia porcellus) (UniProt P41144); test: Displacement of [3H]CI-977 from kappa opioid receptor in guinea pig brain membranes after 2 hrs by scintillation counting method; assay type: cell membranes; conditions: Membrane, concentration not given here
# Kappa-type opioid receptor (Cavia porcellus), sequence (P41144 whole entry): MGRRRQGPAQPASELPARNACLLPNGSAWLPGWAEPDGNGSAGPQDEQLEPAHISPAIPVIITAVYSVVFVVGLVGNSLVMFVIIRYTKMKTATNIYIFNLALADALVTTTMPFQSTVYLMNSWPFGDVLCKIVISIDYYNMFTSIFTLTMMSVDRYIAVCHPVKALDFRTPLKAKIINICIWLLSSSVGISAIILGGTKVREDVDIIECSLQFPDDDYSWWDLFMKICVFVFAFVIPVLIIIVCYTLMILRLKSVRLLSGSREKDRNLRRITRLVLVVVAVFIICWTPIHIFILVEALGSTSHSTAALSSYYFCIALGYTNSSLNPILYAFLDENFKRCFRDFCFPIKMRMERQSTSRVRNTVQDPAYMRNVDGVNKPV
# [3] = biological target: T1, Kappa-type opioid receptor (Homo sapiens, UniProt P41145); test: Antagonist activity at kappa opioid receptor (unknown origin); assay type: functional
# T1 sequence (P41145 whole entry): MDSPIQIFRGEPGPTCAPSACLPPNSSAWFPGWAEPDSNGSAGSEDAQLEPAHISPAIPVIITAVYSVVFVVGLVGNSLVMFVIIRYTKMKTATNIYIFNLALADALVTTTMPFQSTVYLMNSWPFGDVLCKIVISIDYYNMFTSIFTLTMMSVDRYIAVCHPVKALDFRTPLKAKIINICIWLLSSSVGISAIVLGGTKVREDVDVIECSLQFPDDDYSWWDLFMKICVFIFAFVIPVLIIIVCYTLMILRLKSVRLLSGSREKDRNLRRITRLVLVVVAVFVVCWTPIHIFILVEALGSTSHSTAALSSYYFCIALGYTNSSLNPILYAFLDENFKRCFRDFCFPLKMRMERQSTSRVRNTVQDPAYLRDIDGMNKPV
# Homo sapiens [4] = organism: Homo sapiens; test: Selectivity ratio of Ki for Mu opioid receptor (unknown origin) to Ki for kappa opioid receptor (unknown origin)
# Homo sapiens [5] = organism: Homo sapiens; test: Selectivity ratio of Ki for delta opioid receptor (unknown origin) to Ki for kappa opioid receptor (unknown origin)
# [6] = biological target: T1, Kappa-type opioid receptor; test: Antagonist activity at human kappa opioid receptor expressed in CHO cells assessed as stimulation of [35S]GTPgammaS; assay type: functional, cell-based
# Mu-type opioid receptor [7] = biological target: Mu-type opioid receptor (Homo sapiens, UniProt P35372); test: Antagonist activity at human mu opioid receptor expressed in CHO cells assessed as stimulation of [35S]GTPgammaS; assay type: functional, cell-based
# Mu-type opioid receptor (Homo sapiens, UniProt P35372), sequence (P35372 whole entry): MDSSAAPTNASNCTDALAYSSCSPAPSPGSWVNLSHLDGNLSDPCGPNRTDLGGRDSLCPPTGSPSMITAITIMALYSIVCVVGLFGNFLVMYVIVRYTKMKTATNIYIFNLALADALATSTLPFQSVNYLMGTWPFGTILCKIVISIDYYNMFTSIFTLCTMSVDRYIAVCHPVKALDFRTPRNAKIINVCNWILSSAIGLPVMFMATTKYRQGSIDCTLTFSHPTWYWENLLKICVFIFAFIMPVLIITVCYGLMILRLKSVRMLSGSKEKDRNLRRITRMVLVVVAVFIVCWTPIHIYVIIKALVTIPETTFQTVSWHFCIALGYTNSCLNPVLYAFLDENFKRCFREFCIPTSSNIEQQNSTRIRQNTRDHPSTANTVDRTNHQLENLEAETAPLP
# [8] = biological target: Delta-type opioid receptor (Homo sapiens, UniProt P41143); test: Antagonist activity at human delta opioid receptor expressed in CHO cells assessed as stimulation of [35S]GTPgammaS; assay type: functional, cell-based
# Delta-type opioid receptor (Homo sapiens, UniProt P41143), sequence (P41143 whole entry): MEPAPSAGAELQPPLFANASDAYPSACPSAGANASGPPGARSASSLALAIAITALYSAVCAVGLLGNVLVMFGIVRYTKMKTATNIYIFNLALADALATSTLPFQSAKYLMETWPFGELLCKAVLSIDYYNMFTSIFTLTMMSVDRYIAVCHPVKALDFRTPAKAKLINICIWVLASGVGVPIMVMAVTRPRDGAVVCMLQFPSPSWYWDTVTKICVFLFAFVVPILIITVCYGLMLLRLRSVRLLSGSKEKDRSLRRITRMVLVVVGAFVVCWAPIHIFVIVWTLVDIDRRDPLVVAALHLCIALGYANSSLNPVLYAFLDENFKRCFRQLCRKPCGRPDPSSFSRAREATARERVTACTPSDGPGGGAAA
# [9] = biological target: Kappa-type opioid receptor (Cavia porcellus, UniProt P41144); test: Displacement of [3H]U69,593 from kappa opioid receptor in guinea pig brain membranes after 2 hrs; assay type: cell membranes, Membrane
# Kappa-type opioid receptor (Cavia porcellus, UniProt P41144), sequence (P41144 whole entry): as the sequence (P41144 whole entry) above
# [10] = Selectivity ratio of Ki for mu-opioid receptor in rat brain membranes to Ki for kappa opioid receptor in guinea pig brain membranes; assay type: cell membranes
# [11] = Selectivity ratio of Ki for delta-opioid receptor in rat brain membranes to Ki for kappa opioid receptor in guinea pig brain membranes; assay type: cell membranes
# Mu-type opioid receptor [12] = biological target: T2, Mu-type opioid receptor (Rattus norvegicus, UniProt P33535); test: Displacement of [3H]-diprenorphine from rat mu-opioid receptor in expressed in rat C6 cell membranes after 1 hr
# T2 sequence (P33535 whole entry): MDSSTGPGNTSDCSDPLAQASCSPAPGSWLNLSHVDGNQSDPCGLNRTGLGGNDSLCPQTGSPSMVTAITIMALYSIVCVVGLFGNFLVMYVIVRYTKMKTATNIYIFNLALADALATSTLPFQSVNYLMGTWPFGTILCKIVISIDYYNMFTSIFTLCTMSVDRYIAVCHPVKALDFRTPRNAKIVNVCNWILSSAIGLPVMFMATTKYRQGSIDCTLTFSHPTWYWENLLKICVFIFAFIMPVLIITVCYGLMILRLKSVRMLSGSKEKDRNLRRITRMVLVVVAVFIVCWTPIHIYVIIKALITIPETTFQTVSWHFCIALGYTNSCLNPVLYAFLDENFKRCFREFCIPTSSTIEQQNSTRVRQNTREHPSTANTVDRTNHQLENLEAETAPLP
# [13] = biological target: T1, Kappa-type opioid receptor; test: Displacement of [3H]-diprenorphine from human kappa opioid receptor expressed in CHO cells after 1 hr; assay type: cell-based
# [14] = Selectivity ratio of Ki for rat mu-opioid receptor in expressed in rat C6 cell membranes to Ki for human kappa opioid receptor expressed in CHO cell membranes; assay type: cell-based
# Rattus norvegicus = test: […] activity in po dosed rat assessed as reversal of U-69593-induced pain response; assay type: functional
# Mu-type opioid receptor [15] = biological target: T2, Mu-type opioid receptor; test: Displacement of [3H]DAMGO from mu-opioid receptor in rat brain membranes after 2 hrs; assay type: cell membranes, Membrane
# [16] = biological target: Delta-type opioid receptor (Rattus norvegicus, UniProt P33533); test: Displacement of [3H]DADLE from delta-opioid receptor in rat brain membranes after 2 hrs; assay type: cell membranes, Membrane
# Delta-type opioid receptor (Rattus norvegicus, UniProt P33533), sequence (P33533 whole entry): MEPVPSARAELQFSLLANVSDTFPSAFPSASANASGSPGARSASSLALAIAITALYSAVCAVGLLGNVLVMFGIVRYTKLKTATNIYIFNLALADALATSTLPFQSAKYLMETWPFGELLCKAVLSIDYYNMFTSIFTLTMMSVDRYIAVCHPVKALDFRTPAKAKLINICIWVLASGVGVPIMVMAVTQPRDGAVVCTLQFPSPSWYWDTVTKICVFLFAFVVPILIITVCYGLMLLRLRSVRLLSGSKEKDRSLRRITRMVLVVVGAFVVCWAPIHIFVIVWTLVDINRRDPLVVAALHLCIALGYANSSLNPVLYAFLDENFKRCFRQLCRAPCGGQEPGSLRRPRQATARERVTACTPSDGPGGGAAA
structure (smiles),measurement,setting,value
"O=C1N[C@@H](Cc2ccccc2)C(=O)N2CCC[C@@H]2C(=O)N[C@@H](Cc2ccccc2)C(=O)N[C@H]1Cc1c[nH]c2ccccc12 (HELM PEPTIDE1{F.W.F.[dP]}$PEPTIDE1,PEPTIDE1,1:R1-4:R2$$$V2.0)",IC50,[1],2600 nM
same,ED50,Oryctolagus cuniculus,1300 nM
CC(C)CNCc1ccc(-c2ccccc2S(=O)(=O)N2CCCC2)cc1,inhibition,[2],82%
CC(=O)N[C@@H](Cc1ccccc1)C(=O)N[C@@H](Cc1ccccc1)C(=O)N[C@@H](Cc1ccccc1)C(=O)N[C@@H](CCCNC(=N)N)C(=O)N[C@@H](CC(C)C)C(=O)N[C@@H](CCCNC(=N)N)C(=O)N[C@@H](CCCNC(=N)N)C(=O)N[C@H](C)C(=O)N[C@@H](CCCNC(=N)N)C(=O)N1CCC[C@H]1C(=O)N[C@@H](CCCCN)C(N)=O (HELM PEPTIDE1{[ac].F.F.F.R.L.R.R.[dA].R.P.K.[am]}$$$$V2.0),Ki,[3],10 nM
same,Ratio Ki,Homo sapiens [4],174
same,Ratio Ki,Homo sapiens [5],583
CCCCC(=N)NCCc1ccc2c(c1)C1C[C@@]3(O)[C@H]4Cc5ccc(O)c6c5[C@@]3(CCN4CC3CC3)[C@@H](O6)C1N2 (some centres not stated),Ki,[6],0.17 nM
same,Ki,Mu-type opioid receptor [7],5.33 nM
same,Ki,[8],3.31 nM
CC(=O)N1Cc2cc(O)ccc2C[C@@H]1C(=O)N[C@H](CN1CC[C@@](C)(c2cccc(O)c2)[C@@H](C)C1)C(C)C,Ki,[9],164 nM
same,Ratio Ki,[10],5
same,Ratio Ki,[11],> 34
CC(C)[C@@H](CN1CC[C@@](C)(c2cccc(O)c2)[C@@H](C)C1)NC(=O)[C@H]1Cc2ccc(O)cc2CN1C,Ratio Ki,[10],700
same,Ratio Ki,[11],11600
C[C@H]1CN(CCOC(=O)[C@H]2Cc3ccc(O)cc3CN2)CC[C@@]1(C)c1cccc(O)c1,Ki,Mu-type opioid receptor [12],97.7 nM
same,Ki,[13],135 nM
same,Ratio Ki,[14],0.72
CCOC(=O)C(CN1CC[C@@](C)(c2cccc(O)c2)[C@@H](C)C1)OC(=O)[C@H]1Cc2ccc(O)cc2CN1 (some centres not stated),Ki,[13],2.39 nM
Cc1cc(C)cc([C@@H]2CCCN2Cc2ccc(Oc3ccc(C(N)=O)cc3F)cc2)c1 [ATICAPRANT],ED50,Rattus norvegicus,0.4 mg/kg
C[C@H]1CN(CCCOC(=O)[C@H]2Cc3ccc(O)cc3CN2)CC[C@@]1(C)c1cccc(O)c1,Ki,Mu-type opioid receptor [12],93 nM
same,Ki,[13],174 nM
same,Ratio Ki,[14],0.54
CC(C)[C@@H](CN1CC[C@@](C)(c2cccc(O)c2)[C@@H](C)C1)NC(=O)[C@H]1Cc2ccc(O)cc2CN1 [JDTIC],Ki,Mu-type opioid receptor [15],2.16 nM
same,Ki,[16],> 300 nM
CC(C)[C@@H](CN1CC[C@@](C)(c2cccc(O)c2)[C@@H](C)C1)NC(=O)[C@H]1Cc2ccc(O)cc2CN1C(=O)CN(C)C,Ratio Ki,[10],11
same,Ratio Ki,[11],> 219
N=C(N)NCCC[C@@H]1NC(=O)[C@H](CCCNC(=N)N)NC(=O)[C@H](NC(=O)[C@H](Cc2ccccc2)NC(=O)CNC(=O)CNC(=O)[C@H](Cc2ccc(O)cc2)NCc2ccccc2)CC(=O)NC[C@@H](C(=O)N[C@@H](CCCNC(=N)N)C(=O)N2CCC[C@H]2C(=O)N[C@@H](CCCCN)C(N)=O)NC1=O,Ki,[3],30 nM
